Laboratory results reported in ChEMBL document CHEMBL4420076, “Amylin and calcitonin receptor agonist” (2017).
Numbered stars: 1 amine (or outer) side, 2 acyl side, 3 side chain; on linkers, the order of the positions; unused ones are H or OH. Peptide text beside a SMILES is read from it. * marks the point of attachment. C20 diacid = O=C(O)CCCCCCCCCCCCCCCCCCC(=O)*; γGlu = O=C(O)[C@H](CCC(=O)[*:2])N[*:1]

Assays:
[1] = target: T1, Calcitonin receptor (Homo sapiens, UniProt P30988); assay: Displacement of [125I]-labeled human calcitonin from human calcitonin receptor expressed in BHK tkts13 cell membranes incubated for 1 hr by scintillation proximity assay
T1 sequence (P30988 whole entry): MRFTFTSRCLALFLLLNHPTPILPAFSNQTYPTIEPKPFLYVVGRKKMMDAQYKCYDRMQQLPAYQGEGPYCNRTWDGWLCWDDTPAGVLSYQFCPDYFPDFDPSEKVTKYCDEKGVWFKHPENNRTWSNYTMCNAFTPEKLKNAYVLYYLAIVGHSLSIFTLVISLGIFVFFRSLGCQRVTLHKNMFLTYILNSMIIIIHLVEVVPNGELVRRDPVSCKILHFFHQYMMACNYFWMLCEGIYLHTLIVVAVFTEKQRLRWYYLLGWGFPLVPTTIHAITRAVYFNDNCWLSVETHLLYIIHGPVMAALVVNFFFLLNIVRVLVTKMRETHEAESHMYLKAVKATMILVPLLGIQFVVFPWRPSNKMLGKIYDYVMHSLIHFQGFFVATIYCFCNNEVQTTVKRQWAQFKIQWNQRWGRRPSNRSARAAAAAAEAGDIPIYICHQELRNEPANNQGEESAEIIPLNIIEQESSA

[2] = Solubility in 100 mM glycylglycine buffer at pH 4.0 incubated for 18 hrs by UPLC analysis; format: physicochemical
[3] = Solubility in 100 mM bistrispropane buffer at pH 7.5 incubated for 18 hrs by UPLC analysis; format: physicochemical
[4] = Stability in pH 7.5 buffer assessed as lag time for fibril formation at 1 uM by Thioflavin T based fluorescence assay; format: physicochemical; details: pH 7.5, 1 µM
[5] = target: T1, Calcitonin receptor; assay: Agonist activity at human calcitonin receptor expressed in BHK570 cells assessed as increase in intracellular cAMP concentration incubated for 3 hrs in absence of albumin by CRE luciferase reporter gene assay; format: functional, cell-based
[6] = Stability in pH 7.5 buffer assessed as compound recovery at 1 uM by Thioflavin T based fluorescence assay; format: physicochemical; details: read-out: Drug recovery
[7] = Solubility in 100 mM bistrispropane buffer at pH 6.5 incubated for 18 hrs by UPLC analysis; format: physicochemical
[8] = Solubility in 100 mM glycylglycine buffer at pH 3.0 incubated for 18 hrs by UPLC analysis; format: physicochemical
[9] = target: T2, Amylin receptor AMY3; CALCR/RAMP3 (Homo sapiens, UniProt O60896+P30988); assay: Agonist activity at human amylin receptor expressed in BHK570 cells co-expressing RAMP3 assessed as increase in intracellular cAMP concentration incubated for 3 hrs in presence of 10% FBS by CRE luciferase reporter gene assay; format: functional, cell-based
T2 sequence (P30988 whole entry): T1 sequence (P30988 whole entry)
T2 sequence (O60896 whole entry): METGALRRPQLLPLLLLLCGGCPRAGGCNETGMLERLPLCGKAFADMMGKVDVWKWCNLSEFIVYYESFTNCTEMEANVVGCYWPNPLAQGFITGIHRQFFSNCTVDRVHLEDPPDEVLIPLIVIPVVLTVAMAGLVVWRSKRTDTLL

[10] = Solubility in 100 mM bistrispropane buffer at pH 7.0 incubated for 18 hrs by UPLC analysis; format: physicochemical
[11] = target: T3, Amylin receptor AMY3; CALCR/RAMP3 (Rattus norvegicus, UniProt P32214+Q9JJ73); assay: Displacement of [125I]-labeled rat amylin from rat amylin receptor expressed in BHK tkts13 cell membranes co-expressing RAMP3 incubated for 120 mins by scintillation proximity assay
T3 sequence (P32214 whole entry): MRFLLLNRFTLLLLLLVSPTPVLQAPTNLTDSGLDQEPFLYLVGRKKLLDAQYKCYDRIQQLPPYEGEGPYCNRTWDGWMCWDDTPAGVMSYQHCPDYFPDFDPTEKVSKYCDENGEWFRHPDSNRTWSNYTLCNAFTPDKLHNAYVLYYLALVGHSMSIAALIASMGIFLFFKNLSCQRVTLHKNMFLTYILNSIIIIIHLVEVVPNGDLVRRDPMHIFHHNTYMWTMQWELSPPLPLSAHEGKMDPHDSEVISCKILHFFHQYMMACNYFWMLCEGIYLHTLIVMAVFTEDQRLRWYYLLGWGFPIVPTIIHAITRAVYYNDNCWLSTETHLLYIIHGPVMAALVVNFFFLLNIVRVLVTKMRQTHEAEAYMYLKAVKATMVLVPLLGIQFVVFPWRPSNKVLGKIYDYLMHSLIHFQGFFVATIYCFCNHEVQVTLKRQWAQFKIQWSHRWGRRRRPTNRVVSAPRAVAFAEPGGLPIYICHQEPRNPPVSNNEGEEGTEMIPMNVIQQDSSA
T3 sequence (Q9JJ73 whole entry): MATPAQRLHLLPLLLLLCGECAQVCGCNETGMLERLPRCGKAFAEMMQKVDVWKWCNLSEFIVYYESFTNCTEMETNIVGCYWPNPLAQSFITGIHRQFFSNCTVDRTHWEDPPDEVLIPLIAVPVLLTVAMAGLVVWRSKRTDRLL

[12] = Solubility in 100 mM bistrispropane buffer at pH 8.0 incubated for 18 hrs by UPLC analysis; format: physicochemical
[13] = target: T2, Amylin receptor AMY3; CALCR/RAMP3; assay: Agonist activity at human amylin receptor expressed in BHK570 cells co-expressing RAMP3 assessed as increase in intracellular cAMP concentration incubated for 3 hrs in absence of albumin by CRE luciferase reporter gene assay; format: functional, cell-based
[14] = Solubility in 100 mM bistrispropane buffer at pH 6.0 incubated for 18 hrs by UPLC analysis; format: physicochemical
[15] = target: T1, Calcitonin receptor; assay: Agonist activity at human calcitonin receptor expressed in BHK570 cells assessed as increase in intracellular cAMP concentration incubated for 3 hrs in presence of 10% FBS by CRE luciferase reporter gene assay; format: functional, cell-based
[16] = test system: Rattus norvegicus; assay: Reduction in food intake in Sprague-Dawley rat at 3 nmol/kg measured 0 to 24 hrs post dose relative to control; format: functional; set-up: scale not given: the % may be the effect or the level left
[17] = target: T2, Amylin receptor AMY3; CALCR/RAMP3; assay: Displacement of [125I]-labeled rat amylin from human amylin receptor expressed in BHK570 cell membranes co-expressing RAMP3 incubated for 120 mins by scintillation proximity assay
[18] = test system: Rattus norvegicus; assay: Reduction in food intake in Sprague-Dawley rat at 3 nmol/kg measured 24 to 48 hrs post dose relative to control; format: functional; set-up: scale not given: the % may be the effect or the level left

Compound | IC50 [1] | solubility at 18 h [2] | solubility at 18 h [3] | Time [4] | EC50 [5] | remaining at 1 µM [6] | solubility at 18 h [7] | solubility at 18 h [8] | EC50 [9] | solubility at 18 h [10] | IC50 [11] | solubility at 18 h [12] | EC50 [13] | solubility at 18 h [14] | EC50 [15] | Activity [16] | IC50 [17] | Activity [18]
CC(C)C[C@H](NC(=O)[C@H](C)NC(=O)[C@H](C)NC(=O)[C@@H](NC(=O)[C@H](CO)NC(=O)[C@H](CC(C)C)NC(=O)[C@H](CCC(=O)O)NC(=O)[C@H](CO)NC(=O)[C@H](C)NC(=O)CC[C@H](NC(=O)CCCCCCCCCCCCCCCCCCC(=O)O)C(=O)O)[C@@H](C)O)C(=O)NCC(=O)N[C@@H](CCCNC(=N)N)C(=O)N[C@@H](CC(C)C)C(=O)N[C@@H](CO)C(=O)N[C@@H](C)C(=O)N[C@@H](CCC(=O)O)C(=O)N[C@@H](CC(C)C)C(=O)N[C@@H](Cc1cnc[nH]1)C(=O)N[C@@H](CCC(=O)O)C(=O)N[C@@H](CC(C)C)C(=O)N[C@@H](C)C(=O)N[C@H](C(=O)N[C@@H](CC(C)C)C(=O)N1CCC[C@H]1C(=O)N[C@@H](CCCNC(=N)N)C(=O)N[C@H](C(=O)N[C@@H](CCC(=O)O)C(=O)N[C@H](C(=O)NCC(=O)N[C@@H](CO)C(=O)NCC(=O)N[C@@H](CO)C(=O)N[C@@H](Cc1ccc(O)cc1)C(N)=O)[C@@H](C)O)[C@@H](C)O)[C@@H](C)O ({C20 diacid-γGlu}-ASELSTAALGRLSAELHELATLPRTETGSGSY-NH2) | 0.113 nM | ≥ 200 µM | ≥ 200 µM | > 45 h | 0.037 nM | 100% | ≥ 200 µM | ≥ 200 µM | 0.062 nM | ≥ 200 µM | 0.029 nM | ≥ 200 µM | 0.046 nM | ≥ 200 µM | 0.049 nM |  |  | 
CC(C)C[C@H](NC(=O)[C@H](CCCNC(=N)N)NC(=O)CNC(=O)[C@H](CC(C)C)NC(=O)[C@@H](NC(=O)[C@H](C)NC(=O)[C@@H](NC(=O)[C@H](CO)NC(=O)[C@H](CC(C)C)NC(=O)[C@H](CCC(=O)O)NC(=O)[C@H](CO)NC(=O)[C@H](C)NC(=O)CC[C@H](NC(=O)CCCCCCCCCCCCCCCCCCC(=O)O)C(=O)O)[C@@H](C)O)[C@@H](C)O)C(=O)N[C@@H](CO)C(=O)N[C@@H](C)C(=O)N[C@@H](CCC(=O)O)C(=O)N[C@@H](CC(C)C)C(=O)N[C@@H](Cc1cnc[nH]1)C(=O)N[C@@H](CCC(=O)O)C(=O)N[C@@H](CC(C)C)C(=O)N[C@@H](CO)C(=O)N[C@H](C(=O)N[C@@H](Cc1ccc(O)cc1)C(=O)N1CCC[C@H]1C(=O)N[C@@H](CCCNC(=N)N)C(=O)N[C@H](C(=O)N[C@@H](CCC(=O)O)C(=O)N[C@H](C(=O)NCC(=O)N[C@@H](CO)C(=O)NCC(=O)N[C@@H](CO)C(=O)N[C@@H](Cc1ccc(O)cc1)C(N)=O)[C@@H](C)O)[C@@H](C)O)[C@@H](C)O ({C20 diacid-γGlu}-ASELSTATLGRLSAELHELSTYPRTETGSGSY-NH2) |  | ≥ 200 µM | ≥ 200 µM |  | 0.023 nM |  | ≥ 200 µM | ≥ 200 µM | 0.092 nM | ≥ 200 µM | 0.045 nM | ≥ 200 µM | 0.02 nM | ≥ 200 µM | 0.04 nM | 46% | 0.159 nM | 68%
